These results are taken from patent US20110098325A1, “PYRIDINE BENZAMIDES AND PYRAZINE BENZAMIDES USED AS PKD INHIBITORS” (CANCER RESEARCH TECHNOLOGY LIMITED, priority 2006, published 2011).

pIC50: −log10 of the molar value.

This test deals with T1, Murine PKD1 kinase domain (Mus musculus, UniProt Q62101).
T1 construct: hexahistidine (pFastBac HTb leader) (N); made in house; host or cells: Sf9 insect cells, baculovirus (Bac-to-Bac HT, pFastBac HTb)
T1 sequence (Q62101 with tags, fused parts or gaps R683W): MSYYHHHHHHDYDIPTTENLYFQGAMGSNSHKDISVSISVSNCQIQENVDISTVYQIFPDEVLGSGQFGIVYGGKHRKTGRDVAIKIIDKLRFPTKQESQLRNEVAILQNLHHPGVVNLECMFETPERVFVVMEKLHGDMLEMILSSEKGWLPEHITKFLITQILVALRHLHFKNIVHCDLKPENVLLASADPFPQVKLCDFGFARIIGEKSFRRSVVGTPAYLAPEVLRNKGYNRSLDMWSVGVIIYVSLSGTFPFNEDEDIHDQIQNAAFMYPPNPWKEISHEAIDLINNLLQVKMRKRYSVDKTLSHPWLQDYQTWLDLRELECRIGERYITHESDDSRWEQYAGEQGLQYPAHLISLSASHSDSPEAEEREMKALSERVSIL
Briefly: PKD1 (Murine Kinase Domain) Enzyme Activity Assay (IMAP fluorescence polarisation). To be noted: 10 μM ATP, 60 minutes, room temperature. It counts as biochemical. For orientation: Fluorescence polarisation rises when a labelled molecule tumbles more slowly, as on binding a larger partner.
`CN(C)CCNC(=O)c1cccc(-c2cnc(N)c(-c3cccc4ccccc34)c2)c1` [Y-019, 3-(6-Amino-5-naphthalen-1-yl-pyridin-3-yl)-N-(2-dimethylamino-ethyl)-benzamide]: the pIC50 (as a rule, −log10 of the IC50, conventionally taken in molar units) is above 6.00. `CN(C)CCNC(=O)c1cccc(-c2cnc(N)c(-c3ccc(O)cc3)c2)c1` [Y-079, 3-[6-Amino-5-(4-hydroxy-phenyl)-pyridin-3-yl]-N-(2-dimethylamino-ethyl)-benzamide]: the pIC50 is above 6.00.

For the compound `COc1cccc(-c2cncc(-c3cccc(C(=O)NCCCN(C)C)c3)n2)c1` [X-001, N-(3-Dimethylamino-propyl)-3-[6-(3-methoxy-phenyl)-pyrazin-2-yl]-benzamide], the pIC50 was 5.00 to 6.00. The same measure for `COc1cc(OC)cc(-c2cc(-c3cccc(C(=O)NCCN(C)C)c3)cnc2N)c1` [Y-081, 3-[6-Amino-5-(3,5-dimethoxy-phenyl)-pyridin-3-yl]-N-(2-dimethylamino-ethyl)-benzamide]: above 6.00; for `CN(C)CCNC(=O)c1cccc(-c2cnc(N)c(-c3cncc4ccccc34)c2)c1` [Y-078, 3-(6-Amino-5-isoquinolin-4-yl-pyridin-3-yl)-N-(2-dimethylamino-ethyl)-benzamide]: above 6.00. `CN(C)CCNC(=O)c1cccc(-c2cncc(-c3ccc(CO)cc3)n2)c1` [X-005, N-(2-Dimethylamino-ethyl)-3-[6-(4-hydroxymethyl-phenyl)-pyrazin-2-yl]-benzamide] showed a pIC50 above 6.00.
